{
  "source": "ChEMBL document CHEMBL3797052",
  "about": "(Eur J Med Chem, 2016)",
  "data": [
    {"test_system": "not listed separately", "test": "Antiproliferative activity against human HCT116 cells assessed as cell growth at 10^-8 M after 48 hrs by sulforhodamine B assay", "type": "functional", "conditions": "HCT-116, 48 h, read-out: Activity", "units": {"growth at 0.01 µM": "%"}, "values": [
      {"smiles": "CNC(=O)c1cc(Oc2ccc3nc(NC(=O)Nc4ccc(Cl)c(Cl)c4)sc3c2)ccn1", "growth at 0.01 µM": 94}
    ]},
    {"test_system": "T47D", "test": "(§1) Antiproliferative activity against human T47D cells assessed as growth inhibition after 48 hrs by sulforhodamine B assay", "type": "functional", "conditions": "not given", "units": {"GI50": "µM", "TGI": "µM"}, "values": [
      {"smiles": "CNC(=O)c1cc(Oc2ccc3nc(NC(=O)Nc4ccc(Cl)c(Cl)c4)sc3c2)ccn1", "GI50": 2.65, "TGI": 6.36}
    ]},
    {"test_system": "T47D", "test": "as §1", "type": "functional", "conditions": "read-out: LC50 (the source's name)", "units": {"CC50": "µM"}, "values": [
      {"smiles": "CNC(=O)c1cc(Oc2ccc3nc(NC(=O)Nc4ccc(Cl)c(Cl)c4)sc3c2)ccn1", "CC50": "> 100"}
    ]},
    {"test_system": "NCI-H522", "test": "Antiproliferative activity against human NCI-H522 cells assessed as cell growth at 10^-6 M after 48 hrs by sulforhodamine B assay", "type": "functional", "conditions": "NCI-H522, 48 h, read-out: Activity", "units": {"growth at 1 µM": "%"}, "values": [
      {"smiles": "CNC(=O)c1cc(Oc2ccc3nc(NC(=O)Nc4ccc(Cl)c(Cl)c4)sc3c2)ccn1", "growth at 1 µM": 97}
    ]},
    {"test_system": "T47D", "test": "Antiproliferative activity against human T47D cells assessed as cell growth at 10^-8 M after 48 hrs by sulforhodamine B assay", "type": "functional", "conditions": "read-out: Activity", "units": {"growth at 0.01 µM": "%"}, "values": [
      {"smiles": "CNC(=O)c1cc(Oc2ccc3nc(NC(=O)Nc4ccc(Cl)c(Cl)c4)sc3c2)ccn1", "growth at 0.01 µM": 102}
    ]},
    {"test_system": "K562", "test": "Antiproliferative activity against human K562 cells assessed as cell growth at 10^-7 M after 48 hrs by sulforhodamine B assay", "type": "functional", "conditions": "K562, 48 h, read-out: Activity", "units": {"growth at 0.1 µM": "%"}, "values": [
      {"smiles": "CNC(=O)c1cc(Oc2ccc3nc(NC(=O)Nc4ccc(Cl)c(Cl)c4)sc3c2)ccn1", "growth at 0.1 µM": 98}
    ]},
    {"test_system": "SK-MEL-28", "test": "Antiproliferative activity against human SK-MEL-28 cells assessed as cell growth at 10^-4 M after 48 hrs by sulforhodamine B assay", "type": "functional", "conditions": "SK-MEL-28, 48 h, read-out: Activity", "units": {"growth at 100 µM": "%"}, "values": [
      {"smiles": "CNC(=O)c1cc(Oc2ccc3nc(NC(=O)Nc4ccc(Cl)c(Cl)c4)sc3c2)ccn1", "growth at 100 µM": -51}
    ]},
    {"test_system": "not listed separately", "test": "(§2) Antiproliferative activity against human HCC2998 cells assessed as growth inhibition after 48 hrs by sulforhodamine B assay", "type": "functional", "conditions": "HCC 2998, 48 h", "units": {"GI50": "µM", "TGI": "µM"}, "values": [
      {"smiles": "CNC(=O)c1cc(Oc2ccc3nc(NC(=O)Nc4ccc(Cl)c(Cl)c4)sc3c2)ccn1", "GI50": 5.04, "TGI": "> 100"}
    ]},
    {"test_system": "not listed separately", "test": "as §2", "type": "functional", "conditions": "HCC 2998, 48 h, read-out: LC50 (the source's name)", "units": {"CC50": "µM"}, "values": [
      {"smiles": "CNC(=O)c1cc(Oc2ccc3nc(NC(=O)Nc4ccc(Cl)c(Cl)c4)sc3c2)ccn1", "CC50": "> 100"}
    ]},
    {"test_system": "HT-29", "test": "Antiproliferative activity against human HT-29 cells assessed as cell growth at 10^-8 M after 48 hrs by sulforhodamine B assay", "type": "functional", "conditions": "HT-29, 48 h, read-out: Activity", "units": {"growth at 0.01 µM": "%"}, "values": [
      {"smiles": "CNC(=O)c1cc(Oc2ccc3nc(NC(=O)Nc4ccc(Cl)c(Cl)c4)sc3c2)ccn1", "growth at 0.01 µM": 107}
    ]},
    {"test_system": "not listed separately", "test": "Antiproliferative activity against human NCI-ADR-RES cells assessed as cell growth at 10^-8 M after 48 hrs by sulforhodamine B assay", "type": "functional", "conditions": "read-out: Activity", "units": {"growth at 0.01 µM": "%"}, "values": [
      {"smiles": "CNC(=O)c1cc(Oc2ccc3nc(NC(=O)Nc4ccc(Cl)c(Cl)c4)sc3c2)ccn1", "growth at 0.01 µM": 97}
    ]},
    {"test_system": "NCI-H322M", "test": "Antiproliferative activity against human NCI-H322M cells assessed as cell growth at 10^-7 M after 48 hrs by sulforhodamine B assay", "type": "functional", "conditions": "read-out: Activity", "units": {"growth at 0.1 µM": "%"}, "values": [
      {"smiles": "CNC(=O)c1cc(Oc2ccc3nc(NC(=O)Nc4ccc(Cl)c(Cl)c4)sc3c2)ccn1", "growth at 0.1 µM": 87}
    ]},
    {"test_system": "KM12", "test": "Antiproliferative activity against human KM12 cells assessed as cell growth at 10^-6 M after 48 hrs by sulforhodamine B assay", "type": "functional", "conditions": "KM12, 48 h, read-out: Activity", "units": {"growth at 1 µM": "%"}, "values": [
      {"smiles": "CNC(=O)c1cc(Oc2ccc3nc(NC(=O)Nc4ccc(Cl)c(Cl)c4)sc3c2)ccn1", "growth at 1 µM": 91}
    ]},
    {"test_system": "CCRF-CEM", "test": "(§3) Antiproliferative activity against human CCRF-CEM cells assessed as growth inhibition after 48 hrs by sulforhodamine B assay", "type": "functional", "conditions": "not given", "units": {"GI50": "µM", "TGI": "µM"}, "values": [
      {"smiles": "CNC(=O)c1cc(Oc2ccc3nc(NC(=O)Nc4ccc(Cl)c(Cl)c4)sc3c2)ccn1", "GI50": "> 100", "TGI": "> 100"}
    ]},
    {"test_system": "CCRF-CEM", "test": "as §3", "type": "functional", "conditions": "read-out: LC50 (the source's name)", "units": {"CC50": "µM"}, "values": [
      {"smiles": "CNC(=O)c1cc(Oc2ccc3nc(NC(=O)Nc4ccc(Cl)c(Cl)c4)sc3c2)ccn1", "CC50": "> 100"}
    ]},
    {"test_system": "ACHN", "test": "Antiproliferative activity against human ACHN cells assessed as cell growth at 10^-8 M after 48 hrs by sulforhodamine B assay", "type": "functional", "conditions": "read-out: Activity", "units": {"growth at 0.01 µM": "%"}, "values": [
      {"smiles": "CNC(=O)c1cc(Oc2ccc3nc(NC(=O)Nc4ccc(Cl)c(Cl)c4)sc3c2)ccn1", "growth at 0.01 µM": 92}
    ]},
    {"test_system": "not listed separately", "test": "Antiproliferative activity against human NCI-ADR-RES cells assessed as cell growth at 10^-4 M after 48 hrs by sulforhodamine B assay", "type": "functional", "conditions": "read-out: Activity", "units": {"growth at 100 µM": "%"}, "values": [
      {"smiles": "CNC(=O)c1cc(Oc2ccc3nc(NC(=O)Nc4ccc(Cl)c(Cl)c4)sc3c2)ccn1", "growth at 100 µM": -49}
    ]},
    {"test_system": "not listed separately", "test": "Antiproliferative activity against human RPMI8226 cells assessed as cell growth at 10^-6 M after 48 hrs by sulforhodamine B assay", "type": "functional", "conditions": "RPMI-8226, 48 h, read-out: Activity", "units": {"growth at 1 µM": "%"}, "values": [
      {"smiles": "CNC(=O)c1cc(Oc2ccc3nc(NC(=O)Nc4ccc(Cl)c(Cl)c4)sc3c2)ccn1", "growth at 1 µM": 103}
    ]},
    {"test_system": "K562", "test": "(§4) Antiproliferative activity against human K562 cells assessed as growth inhibition after 48 hrs by sulforhodamine B assay", "type": "functional", "conditions": "K562, 48 h", "units": {"GI50": "µM", "TGI": "µM"}, "values": [
      {"smiles": "CNC(=O)c1cc(Oc2ccc3nc(NC(=O)Nc4ccc(Cl)c(Cl)c4)sc3c2)ccn1", "GI50": "> 100", "TGI": "> 100"}
    ]},
    {"test_system": "K562", "test": "as §4", "type": "functional", "conditions": "K562, 48 h, read-out: LC50 (the source's name)", "units": {"CC50": "µM"}, "values": [
      {"smiles": "CNC(=O)c1cc(Oc2ccc3nc(NC(=O)Nc4ccc(Cl)c(Cl)c4)sc3c2)ccn1", "CC50": "> 100"}
    ]},
    {"test_system": "not listed separately", "test": "Antiproliferative activity against human LOXIMVI cells assessed as cell growth at 10^-8 M after 48 hrs by sulforhodamine B assay", "type": "functional", "conditions": "LOX IMVI, read-out: Activity", "units": {"growth at 0.01 µM": "%"}, "values": [
      {"smiles": "CNC(=O)c1cc(Oc2ccc3nc(NC(=O)Nc4ccc(Cl)c(Cl)c4)sc3c2)ccn1", "growth at 0.01 µM": 95}
    ]}
  ]
}
